These compounds were tested on platelet aggregation (using platelet rich plasma (PRP)) (assay: Platelet Aggregation Assay (without esterase)). Settings: human platelet rich plasma.
Assay type: cell-based
Method: (§1) Platelet Aggregation Assay: Venous blood was obtained from the arm of a healthy human donor who was drug-free and aspirin-free for at least two weeks prior to blood collection. Blood was collected into 10 mL citrated Vacutainer tubes. The blood was centrifuged for 15 minutes at 150×g at room temperature, and platelet-rich plasma (PRP) was removed. The remaining blood was centrifuged for 15 minutes at 1500×g at room temperature, and platelet-poor plasma (PPP) was removed. Samples were assayed on a aggregometer (PAP-4 Platelet Aggregation Profiler), using PPP as the blank (100% transmittance). 200 μL of PRP was added to each micro test tube, and transmittance was set to 0%. 20 μL of various agonists (ADP, collagen, arachidonate, epinephrine, thrombin) were added to each tube, and the aggregation profiles were plotted (% transmittance versus time). The results are expressed as % inhibition of agonist-inducedplatelet aggregation. For the IC50 evaluation, the test compounds were added at various concentrations prior to the activation of the platelets.
(§2) Table A below sets forth the antiplatelet activity of representative compounds of the present invention. The indicated compounds were tested for their ability to inhibit platelet aggregation (using platelet rich plasma (PRP)). The IC50 value (the concentration of antagonist which inhibits platelet aggregation by 50% relative to a control lacking the antagonist) is shown. In Table 5 the IC50 values are expressed as: +++=IC50 of <10 μM (μM=micromolar).
`Cc1ccccc1S(=O)(=O)N[C@@H](CNC(=O)CC1CC(c2ccc(C(=N)N)cc2)N(C)C(=O)O1)C(=O)O` (stereo partly drawn) [Example 328, Cis-3-[[[4-[4-(aminoiminomethyl)phenyl]tetrahydro-3-methyl-2-oxo-2H-1,3-oxazin-6-yl]acetyl]amino]-N-[(2-methylphenyl)sulfonyl]-L-alanine monohydrogenchloride] was tested, and the IC50 was < 10 µM. For `Cc1cccc(S(=O)(=O)N[C@@H](CNC(=O)CC2CC(c3ccc(C(=N)N)cc3)N(Cc3ccccc3)O2)C(=O)O)c1` (stereo partly drawn) [Example 17, Cis-3-[2-[2-benzyl-3-[4-(aminoiminomethyl)phenyl]-isoxazolidin-5-yl]acetyl]amino-N-(3-methylphenylsulfonyl)-L-alanine monohydrogenchloride], the IC50 was < 10 µM. With `Cc1noc(C)c1S(=O)(=O)N[C@@H](CNC(=O)CC1CC(c2ccc(C(=N)N)cc2)N(C)C(=O)O1)C(=O)O` (stereo partly drawn) [Example 336, Cis-3-[[[4-[4-(aminoiminomethyl)phenyl]tetrahydro-3-methyl-2-oxo-2H-1,3-oxazin-6-yl]acetyl]amino]-N-[(3,5-dimethylisoxazol-4-yl)sulfonyl]-L-alanine monohydrogenchloride] the IC50 was < 10 µM. With `CCCCOC(=O)N[C@@H](CNC(=O)CC1CC(c2ccc(C(=N)N)cc2)N(C)C(=O)O1)C(=O)O` (stereo partly drawn) [Example 356, Cis-3-[[[4-[4-(aminoiminomethyl)phenyl]tetrahydro-3-methyl-2-oxo-2H-1,3-oxazin-6-yl]acetyl]amino]-N-(n-butyloxycarbonyl)-L-alanine monohydrogenchloride] the IC50 was < 10 µM. For `Cc1ccccc1S(=O)(=O)N[C@@H](CNC(=O)CC1CC(c2ccc(C(=N)N)cc2)N(C)O1)C(=O)O` (stereo partly drawn) [Example 33, Cis-3-[2-[2-methyl-3-[4-(aminoiminomethyl)phenyl]-isoxazolidin-5-yl]acetyl]amino-N-(2-methylphenylsulfonyl)-L-alanine monohydrogenchloride], the IC50 was < 10 µM. With `Cc1cccc(S(=O)(=O)N[C@@H](CNC(=O)CC2CC(c3ccc(C(=N)N)cc3)N(C)C(=O)O2)C(=O)O)c1` (stereo partly drawn) [Example 301, Cis-3-[[[4-[4-(aminoiminomethyl)phenyl]tetrahydro-3-methyl-2-oxo-2H-1,3-oxazin-6-yl]acetyl]amino]-N-[(3-methylphenyl)sulfonyl]-L-alanine monohydrogenchloride] the IC50 was < 10 µM. In the case of `Cc1cccc(S(=O)(=O)N[C@@H](CNC(=O)CC2CC(c3ccc(C(=N)N)cc3)N(C)O2)C(=O)O)c1` (stereo partly drawn) [Example 2, Cis-3-[2-[2-methyl-3-[4-(aminoiminomethyl)phenyl]-isoxazolidin-5-yl]acetyl]amino-N-(3-methylphenylsulfonyl)-L-alanine monohydrogenchloride], the IC50 is reported as < 10 µM. With `Cc1cccc(S(=O)(=O)N[C@@H](CNC(=O)CC2CC(c3ccc(C(=N)N)cc3)N(C(C)C)O2)C(=O)O)c1` (stereo partly drawn) [Example 29, Cis-3-[2-[2-isopropyl-3-[4-(aminoiminomethyl)phenyl]-isoxazolidin-5-yl]acetyl]amino-N-(3-methylphenylsulfonyl)-L-alanine monohydrogenchloride] the IC50 was < 10 µM.

These compounds were tested on platelet aggregation (using platelet rich plasma (PRP)) (assay: Platelet Aggregation Assay (with esterase; ester prodrugs preincubated with porcine liver esterase)). Settings: human platelet rich plasma; preincubated with 100 IU/mL Porcine liver esterase 2 hours at 37° C.; 100 μM Adenosine Diphosphate.
Assay type: cell-based
Method: as §1
Ester prodrugs were preincubated (10^-3 M F.C.) with 100 IU/mL Porcine liver esterase (Sigma Chemical Co., St. Louis, Mo., #E-3128) for 2 hours at 37° C. Aliquots are then diluted in 0.1 M Tris, pH 7.4, to the desired concentrations. Aliquots of 20 μl of the esterase pretreated prodrugs are added to 200 μl of human platelet rich plasma. Samples were placed in platelet profiler (aggregometer) for 8 minutes at 37° C., followed by the addition of 100 μM Adenosine Diphosphate, (Sigma Chemical Co., St. Louis, Mo., #A-6521), to induce platelet aggregation. Platelet aggregation was allowed to proceed for 5 minutes. Percent inhibition is calculated using percent aggregation in the presence of the test compound divided by percent aggregation of control, times 100. This value is subtracted from 100, yielding percent inhibition. Calculation of IC50 is performed on a Texas Instruments TI59 with an IC50 program.
as §2
With `COC(=O)[C@H](CNC(=O)CC1CC(c2ccc(C(=N)N)cc2)N(Cc2ccccc2)C(=O)O1)NS(=O)(=O)c1cccc(C)c1` (stereo partly drawn) [Example 321, Cis-3-[[[4-[4-(aminoiminomethyl)phenyl]tetrahydro-3-benzyl-2-oxo-2H-1,3-oxazin-6-yl]acetyl]amino]-N-[(3-methylphenyl)sulfonyl]-L-alanine methyl ester monotrifluoroacetic acid] the IC50 was < 10 µM. `COC(=O)[C@H](CNC(=O)CC1CC(c2ccc(C(=N)N)cc2)N(C)O1)NS(=O)(=O)c1cccc(C)c1` (stereo partly drawn) [Example 1, Cis-3-[2-[2-methyl-3-[4-(aminoiminomethyl)phenyl]-isoxazolidin-5-yl]-acetyl]amino-N-(3-methylphenylsulfonyl)-L-alanine Methyl Ester Monotrifluoroacetic Acid] was tested, and the IC50 was < 10 µM. With `CCCCOC(=O)N[C@@H](CNC(=O)CC1CC(c2ccc(C(=N)N)cc2)N(C)C(=O)O1)C(=O)OC` (stereo partly drawn) [Example 355, Cis-3-[[[4-[4-(aminoiminomethyl)phenyl]tetrahydro-3-methyl-2-oxo-2H-1,3-oxazin-6-yl]acetyl]amino]-N-(n-butyloxycarbonyl)-L-alanine methyl ester monotrifluoroacetic acid] the IC50 was < 10 µM. With `COC(=O)[C@H](CNC(=O)CC1CC(c2ccc(C(=N)N)cc2)N(C)O1)NS(=O)(=O)c1cccc(C)c1` (stereo partly drawn) [Example 3, Trans-3-[2-[2-methyl-3-[4-(aminoiminomethyl)phenyl]-isoxazolidin-5-yl]acetyl]amino-N-(3-methylphenylsulfonyl)-L-alanine methyl ester monotrifluoroacetic acid] the IC50 was < 10 µM. `COC(=O)[C@H](CNC(=O)C[C@@H]1CC(c2ccc(C(=N)N)cc2)N(Cc2ccccc2)O1)NS(=O)(=O)c1cccc(C)c1` (relative stereo) [Example 16, Cis-3-[2-[2-benzyl-3-[4-(aminoiminomethyl)phenyl]-isoxazolidin-5-yl]acetyl]-N-(3-methylphenylsulfonyl)-L-alanine methyl ester monotrifluoroacetic acid] was tested, and the IC50 was < 10 µM. `COC(=O)[C@H](CNC(=O)C[C@@H]1C[C@H](c2ccc(C(=N)N)cc2)N(C)O1)NS(=O)(=O)c1c(C)noc1C` (relative stereo) [Example 37, Cis-3-[2-[2-methyl-3-[4-(aminoiminomethyl)phenyl]-isoxazolidin-5-yl]acetyl]amino-N-(3,5-dimethyloxazol-4-ylsulfonyl)-L-alanine methyl ester monotrifluoroacetic] was tested, and the IC50 was < 10 µM. In the case of `COC(=O)[C@H](CNC(=O)CC1CC(c2ccc(C(=N)N)cc2)N(C)C(=O)O1)NS(=O)(=O)c1ccccc1C` (stereo partly drawn) [Example 327, Cis-3-[[[4-[4-(aminoiminomethyl)phenyl]tetrahydro-3-methyl-2-oxo-2H-1,3-oxazin-6-yl]acetyl]amino]-N-[(2-methylphenyl)sulfonyl]-L-alanine methyl ester monotrifluoroacetic acid], the IC50 is reported as < 10 µM. With `COC(=O)[C@H](CNC(=O)CC1CC(c2ccc(C(=N)N)cc2)N(C)O1)NS(=O)(=O)c1ccccc1C` (stereo partly drawn) [Example 32, Cis-3-[2-[2-methyl-3-[4-(aminoiminomethyl)phenyl]-isoxazolidin-5-yl]acetyl]amino-N-(2-methylphenylsulfonyl)-L-alanine methyl ester monotrifluoroacetic acid] the IC50 was < 10 µM. For `COC(=O)[C@H](CNC(=O)CC1CC(c2ccc(C(=N)N)cc2)N(C(C)C)O1)NS(=O)(=O)c1cccc(C)c1` (stereo partly drawn) [Example 28, Cis-3-[2-[2-isopropyl-3-[4-(aminoiminomethyl)phenyl]-isoxazolidin-5-yl]acetyl]amino-N-(3-methylphenylsulfonyl)-L-alanine methyl ester monotrifluoroacetic acid], the IC50 was < 10 µM. `COC(=O)[C@H](CNC(=O)CC1CC(c2ccc(C(=N)N)cc2)N(C)C(=O)O1)NS(=O)(=O)c1cccc(C)c1` (stereo partly drawn) [Example 300, Cis-3-[[[4-[4-(aminoiminomethyl)phenyl]tetrahydro-3-methyl-2-oxo-2H-1,3-oxazin-6-yl]acetyl]amino]-N-[(3-methylphenyl)sulfonyl]-L-alanine methyl ester monotrifluoroacetic acid] was tested, and the IC50 was < 10 µM. In the case of `CCCCOC(=O)N[C@@H](CNC(=O)CC1CC(c2ccc(C(=N)N)cc2)N(C)O1)C(=O)OC` (stereo partly drawn) [Example 68, Cis-3-[2-[2-methyl-3-[4-(aminoiminomethyl)phenyl]-isoxazolidin-5-yl]acetyl]amino-N-n-butyloxycarbonyl-L-alanine methyl ester monotrifluoroacetic acid], the IC50 is reported as < 10 µM. In the case of `COC(=O)[C@H](CNC(=O)CC1CC(c2ccc(C(=N)N)cc2)N(c2ccccc2)O1)NS(=O)(=O)c1cccc(C)c1` (stereo partly drawn) [Example 70, Cis-3-[2-[2-phenyl-3-[4-(aminoiminomethyl)phenyl]-isoxazolidin-5-yl]acetyl]amino-N-(3-methylphenylsulfonyl)-L-alanine methyl ester monotrifluoroacetic acid], the IC50 is reported as < 10 µM. `COC(=O)[C@H](CNC(=O)CC1CC(c2ccc(C(=N)N)cc2)N(C)C(=O)O1)NS(=O)(=O)c1c(C)noc1C` (stereo partly drawn) [Example 335, Cis-3-[[[4-[4-(aminoiminomethyl)phenyl]tetrahydro-3-methyl-2-oxo-2H-1,3-oxazin-6-yl]acetyl]amino]-N-[(3,5dimethylisoxazol-4-yl)sulfonyl]-L-alanine methyl ester monotrifluoroacetic acid] was tested, and the IC50 was < 10 µM.
